Measured values from US9234046B2, “Treatment of renal disease” (OPSONA Therapeutics Ltd, priority 2007, dated 2016).
Where “and” joins values, the source holds several entries; their conditions need not be identical. Equal entries are not always repeated.

Tested on: mice
Assay: Warm renal ischemia/reperfusion repeat study Step 2, 25 minutes ischemia (Example 3)
Assay type: in vivo
Settings: for MDA level as an index of lipid peroxidation / uremia (urea) / MPO activity as an index of neutrophil accumulation / creatininemia (creatinine): individual data and Mean ± SEM, n=6
Procedure: Nine Experimental groups were used in Step 2: • 1) Sham-operated mice sacrificed 1 day after surgery, n=6, • 2) PBS-vehicle-treated mice 15 minutes before ischemia/1 day reperfusion, n=6, • 3) Isotype control antibody 10 mg/kg-treated mice 15 minutes before 25 minutes ischemia/1 day reperfusion, n=6 (The isotype control antibody is mouse IgG1 isotype control purchased from RnD systems (catalogue number MAB002), this isotype control antibody having binding specificity for Keyhole Limpet Hemocyanin (KLH) antigen), • 4) OPN301 anti-TLR2 monoclonal antibody 10 mg/kg-treated mice 15 minutes before 25 minutes ischemia/1 day reperfusion, n=6, • 5) Pargyline 6 mg/kg-treated mice 15 minutes before 25 minutes ischemia/1 day reperfusion, n=6, • 6) PBS-vehicle-treated mice 15 minutes before 25 min ischemia/5 day reperfusion, n=6, • 7) Isotype control antibody (RnD Systems catalogue Number MAB002) 10 mg/kg-treated mice 15 minutes before 25 minutes ischemia/5 day reperfusion, n=6, • 8) OPN301 anti-TLR2 monoclonal antibody 10 mg/kg-treated mice 15 minutes before 25 minutes ischemia/5 day reperfusion, n=6, • 9) Pargyline 6 mg/kg-treated mice 15 minutes before 25 minutes ischemia/5 day reperfusion, n=6, Experimental Warm Renal Ischemia/Reperfusion (Step 1 and 2)
Briefly, mice were anesthetized with 10 μl/g of a mix of 2.5 ml ketamine (Ketalar 50 mg/mL, Centravet; Lapalisse, France), 0.5 ml xylazine (Rompun 2.5%, Centravet; Lapalisse, France), and 7 mL NaCl 0.9% (Centravet; Lapalisse, France). During surgery, animals were set on a 35° C. hotplate.
After a 2 millimetre incision was made at the right jugular level, jugular vein was exposed for a 1 minute-intravenous injection (insulin syringe; VWR, Fontenay-sous-Bois, France) of 70 μl of the considered treatment then closed after haemostasis (5/0 Ethicrin thread, Ethicon; Auneau, France). In Step 1, no jugular injection was performed.
Three centimetre midline incisions were made to abdominal cutaneous followed by muscular incisions were performed; renal pedicles were exposed and clamped for 25 minutes using microaneurysm clamps (AREX; Palaiseau, France). At the time of clamp installation and removal, kidneys were inspected for blood flow arrest and restoration, respectively. During renal ischemia duration, the abdomen was wrapped up to avoid loss of heat and be kept in relative intra-abdominal pressure. At the time of abdomen closing in 2 layers (5/0 Ethicrin thread, Ethicon; Auneau, France), mice were supplemented with 1 mL sterile NaCl (sodium chloride) 0.9% to maintain fluid balance and volume status. Finally, all mice received an intramuscular injection of 10 mg/kg profenid 50 mg/mL (Centravet; Lapalisse, France) for analgesic purpose then allowed to recover from surgery for 12 hours at 32° C. in a ventilated stove. Food and water were given ad libitum. Sham-operated mice underwent the same procedure without clamping.
At the end of the protocol, mice were sacrificed by lethal injection of pentobarbital (100 μL/10 g, Ceva Sante Animale; Libourne, France) 1 and 5 days after surgery.
Experimental methodology such as urea, creatinine, MPO and MDA as described in Example 2.
The results were given as mean values±standard error of the mean (SEM). A one-way ANOVA was used for comparison of within-group difference followed by a Newman-Keuls test for comparison of all pairs of columns (GraphPad Prism, San Diego, USA). A p<0.05 was accepted for statistical significance.

C#CCN(C)Cc1ccccc1 [Pargyline]
effect on renal function impairment induced by ischemic injury, in words (1 day after 25 minute ischemia): without effects | MDA level as an index of lipid peroxidation (Day 1 after 25 minute ischemia, PBS-vehicle 0.153 ± 0.014): 0.285 nmol/mg proteins and 0.163 nmol/mg proteins and 0.212 nmol/mg proteins and 0.242 nmol/mg proteins and 0.249 nmol/mg proteins and 0.202 nmol/mg proteins | MDA level as an index of lipid peroxidation (Day 1 after 25 minute ischemia, PBS-vehicle 0.153 ± 0.014, mean): 0.225 ± 0.017 nmol/mg proteins | uremia (urea) (Day 1 after 25 minute ischemia, PBS-vehicle 31.05 ± 5.70): 47.99 mmol/L and 48.92 mmol/L and 40.01 mmol/L and 27.83 mmol/L and 19.35 mmol/L and 18.22 mmol/L | uremia (urea) (Day 1 after 25 minute ischemia, PBS-vehicle 31.05 ± 5.70, listed as pargyline): 33.72 ± 5.64 mmol/L | uremia (urea) (Day 1 after 25 minute ischemia, PBS-vehicle 31.05 ± 5.70, mean): 33.72 ± 5.64 mmol/L | MPO activity as an index of neutrophil accumulation (Day 1 after 25 minute ischemia, PBS-vehicle 80.45 ± 8.66): 57.37±5.78 U MPO/mg protein and 47.9 U MPO/mg protein and 52.7 U MPO/mg protein and 68.7 U MPO/mg protein and 80.7 U MPO/mg protein and 48.8 U MPO/mg protein and 45.4 U MPO/mg protein | creatininemia (creatinine) (Day 1 after 25 minute ischemia, PBS-vehicle 99.97 ± 25.64): 185.9 µmol/L and 150.7 µmol/L and 134.1 µmol/L and 77.6 µmol/L and 53.3 µmol/L and 26.6 µmol/L | creatininemia (creatinine) (Day 1 after 25 minute ischemia, PBS-vehicle 99.97 ± 25.64, listed as pargyline): 104.7 ± 25.20 µmol/L | creatininemia (creatinine) (Day 1 after 25 minute ischemia, PBS-vehicle 99.97 ± 25.64, mean): 104.7 ± 25.20 µmol/L | MDA level as an index of lipid peroxidation (Day 5 after 25 minute ischemia, PBS-vehicle 0.188 ± 0.019): 0.290 nmol/mg proteins and 0.231 nmol/mg proteins and 0.218 nmol/mg proteins and 0.261 nmol/mg proteins and 0.234 nmol/mg proteins and 0.299 nmol/mg proteins | MDA level as an index of lipid peroxidation (Day 5 after 25 minute ischemia, PBS-vehicle 0.188 ± 0.019, mean): 0.255 ± 0.014 nmol/mg proteins | uremia (urea) (Day 5 after 25 minute ischemia, PBS-vehicle 8.78 ± 0.72): 7.63 mmol/L and 9.48 mmol/L and 7.37 mmol/L and 7.53 mmol/L and 8.78 mmol/L and 7.29 mmol/L | uremia (urea) (Day 5 after 25 minute ischemia, PBS-vehicle 8.78 ± 0.72, mean): 8.01 ± 0.37 mmol/L | creatininemia (creatinine) (Day 5 after 25 minute ischemia, PBS-vehicle 21.97 ± 1.84): 16 μmol/L and 27.2 μmol/L and 30.7 μmol/L and 19.2 μmol/L and 22.9 μmol/L (2×) | creatininemia (creatinine) (Day 5 after 25 minute ischemia, PBS-vehicle 21.97 ± 1.84, mean): 23.15 ± 2.16 µmol/L | MPO activity as an index of neutrophil accumulation (Day 5 after 25 minute ischemia, PBS-vehicle 54.95 ± 0.62): 44.4 U MPO/mg protein and 49.2 U MPO/mg protein and 47.6 U MPO/mg protein and 42.2 U MPO/mg protein and 46.3 U MPO/mg protein and 49.6 U MPO/mg protein | MPO activity as an index of neutrophil accumulation (Day 5 after 25 minute ischemia, PBS-vehicle 54.95 ± 0.62, mean): 46.55 ± 1.17 U MPO/mg protein
